Source: ChEMBL document CHEMBL4418261, “Pyripyropene derivatives having acat2 inhibiting activity and stable to metabolizing enzymes” (2017)

Columns and labels:
[1] = biological target: T1, Sterol O-acyltransferase 2 (Mus musculus, UniProt O88908); assay: Inhibition of ACAT2 in mouse hepatic microsome membranes using [1-14C]oleoyl coenzyme A as substrate incubated for 5 mins; type: microsomes, Liver
T1 sequence (O88908 whole entry): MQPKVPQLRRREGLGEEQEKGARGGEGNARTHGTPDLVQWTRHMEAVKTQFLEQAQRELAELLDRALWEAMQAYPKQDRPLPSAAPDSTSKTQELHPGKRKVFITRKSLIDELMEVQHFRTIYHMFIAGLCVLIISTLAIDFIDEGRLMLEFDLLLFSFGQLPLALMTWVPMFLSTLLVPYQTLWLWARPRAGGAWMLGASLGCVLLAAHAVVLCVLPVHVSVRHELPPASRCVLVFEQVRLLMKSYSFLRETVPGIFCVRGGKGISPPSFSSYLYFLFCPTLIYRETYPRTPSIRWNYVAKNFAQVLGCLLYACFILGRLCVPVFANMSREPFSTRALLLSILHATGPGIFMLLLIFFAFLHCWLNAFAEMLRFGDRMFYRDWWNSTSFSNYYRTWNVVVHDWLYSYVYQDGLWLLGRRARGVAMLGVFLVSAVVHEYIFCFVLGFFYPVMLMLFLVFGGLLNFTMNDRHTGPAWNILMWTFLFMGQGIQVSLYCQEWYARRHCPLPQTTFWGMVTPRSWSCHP

[2] = biological target: T2, Sterol O-acyltransferase 2 (Mus musculus) (UniProt O88908); assay: Potency index, ratio of PRD-043 IC50 to test compound IC50 for inhibition ACAT2 in mouse hepatic microsome membranes using [1-14C]oleoyl coenzyme A as substrate incubated for 5 mins; type: microsomes
T2 sequence (whole entry): T1 sequence (O88908 whole entry)

[3] = Half life in Sprague-Dawley rat hepatic microsomes at 6 ug/ml by LC-MS method; type: ADME, Microsome; details: liver microsomes

`Cc1ccccc1[C@@H]1OC[C@@]2(C)[C@@H]3C[C@H](OC(=O)c4ccc(C#N)cc4)[C@@]4(C)Oc5cc(-c6cccnc6)oc(=O)c5[C@H](O)[C@@H]4[C@@]3(C)CC[C@@H]2O1` gave an IC50 [1] of 1 to 10 nM, a Ratio IC50 [2] of 10 to 20 and a half-life at 6 ug/ml [3] greater than 9 h.

In the case of `COc1ccc(CNC(=O)[C@]2(C)[C@@H](OC(C)=O)CC[C@]3(C)[C@H]4[C@@H](O)c5c(cc(-c6cccnc6)oc5=O)O[C@]4(C)[C@@H](OC(=O)c4ccc(C#N)cc4)C[C@H]32)c(OC)c1`, the IC50 [1] is reported as less than 0.5 nM, the Ratio IC50 [2] is reported as less than 20 and the half-life at 6 ug/ml [3] is reported as greater than 9 h.

Work on `CC(=O)O[C@H]1CC[C@]2(C)[C@H]3[C@@H](O)c4c(cc(-c5cccnc5)oc4=O)O[C@]3(C)[C@@H](OC(=O)c3ccc(C#N)cc3)C[C@H]2[C@]1(C)C(=O)O` yielded an IC50 [1] of less than 0.5 nM, a Ratio IC50 [2] of less than 20 and a half-life at 6 ug/ml [3] greater than 9 h.

In the case of `COC(=O)[C@]1(C)[C@@H](OC(C)=O)CC[C@]2(C)[C@H]3[C@@H](O)c4c(cc(-c5cccnc5)oc4=O)O[C@]3(C)[C@@H](OC(=O)c3ccc(C#N)cc3)C[C@H]21`, the IC50 [1] is reported as 0.5 to 1 nM, the Ratio IC50 [2] is reported as 10 to 20 and the half-life at 6 ug/ml [3] is reported as greater than 9 h.
